Reference: US20230172901A1, “COMPOSITIONS AND METHODS FOR THE PROPHYLAXIS AND TREATMENT OF FIBROTIC AND INFLAMMATORY CONDITIONS” (GRETALS AUSTRALIA PTY LTD, priority 2020, published 2023)
“Also recorded” adds a separate entry of the source.

Key:
Type in all cases: in vivo
[1] = system: sheep model of lung disease, bleomycin-induced lung damage; experiment: Example 1: bleomycin sheep pulmonary model, lung function, inflammation and fibrosis (3 sheep)
Description: In animal models, bleomycin is the most widely used agent to characterise pulmonary fibrosis. In the sheep model, intratracheal administrations of two doses of bleomycin is used to induce fibrosis in the lung parenchyma. The overall study protocol is shown at FIG. 1.
For this example, three female merino sheep aged between 9 months and 1 year were utilised. Animals were housed indoors and received anthelminthic to treat for any existing parasitic disease. The sheep were judged to be free from significant pulmonary disease on the basis of clinical examination before the commencement of experiments and on inspection of gross pathology at autopsy. The Animal Experimentation Ethics Committee of the University of Melbourne, which adheres to the Australian Code of Practice for the care and use of laboratory animals for scientific purposes, approved all experimental procedures outlined below.
Bleomycin sulphate was made up at a concentration of 0.6 U bleomycin/mL saline and administered to the left and right caudal lobes at a rate of 3 U per segment to cause injury to the tissue and trigger fibrosis. For the left caudal lobe, 7 mg of pinocembrin in 10% DMSO was administered to test the efficacy of pinocembrin in the treatment or prevention of bleomycin-induced fibrosis. For the right caudal lobe injury was induced by bleomycin, and DMSO alone administered such that any differential effects between the left and right caudal lobes could be attributed to the pinocembrin.
A saline solution was administered to the right medial lobe, as a sham treatment.
Each of the bleomycin, bleomycin/pinocembrin, and saline compositions was administered via the biopsy port of a fibre-optic bronchoscope to the appropriate lung segments as a 5 ml bolus.
Timing of the administration of the various compositions is summarised at FIG. 1, with all three sheep euthanized at week 12.
The sheep were euthanized by an intravenous overdose of barbiturate (Lethabarb, Veterinary Clinic, University of Melbourne, Werribee, Australia) at week 12 as outlined in FIG. 1 for tissue collection and analysis.
Following euthanasia, the lungs were removed and targeted lung segments identified and carefully dissected free from surrounding tissue. Individual segments were then inflated with a 1:1 mixture of OCT and sterile PBS solution. […]
Segmental compliance (Cseg) was assessed using pressure responses to flow in the different segments as indicated FIG. 2 in awake, consciously breathing sheep using a wedged-bronchoscope technique. […]
Segmental lung compliance was calculated. […] Segmental compliance was then calculated from the pressure-flow decay curve generated from this procedure. The process was repeated 3 times for each segment and expressed as an average value for Cseg. […]

[2] = system: sheep model for pulmonary fibrosis, bleomycin-injured lung segments; experiment: Example 2: segmental lung compliance (Cseg) in bleomycin-injured sheep lung segments
Description: Segmental compliance (Cseg) was assessed using pressure responses to flow in the different segments as indicated FIG. 2 in awake, consciously breathing sheep using a wedged-bronchoscope technique. Briefly, a custom-built Segmental Lung Airway Monitoring (SLAM) System was used to monitor the segmental flow and pressure. After first determining the bronchoscope resistance to the set flow, the bronchoscope was wedged into an airway in the lung segment of interest and a constant flow (6 mL/s) of 5% C02 in air was passed through the working channel of the bronchoscope.
Segmental lung compliance was calculated. Briefly, after the bronchoscope was wedged into the specific region of the lung, pressure was allowed to reach a steady state. After approximately 5 s at steady state, airflow was interrupted turning off the airflow supply. Segmental compliance was then calculated from the pressure-flow decay curve generated from this procedure. The process was repeated 3 times for each segment and expressed as an average value for Cseg. The pressure was recorded by a PM-1000 Transducer Amplifiers (CWE Inc., Admore, USA) and flow was recorded using a mass flow meter (824-S, Sierra Instruments, Monterey, USA). Data were acquired with Data Acquisition Card (PCI-6233; National Instruments Corp., Austin, USA) and was analysed with the SLAM system (Latitude E6520, Dell Computer Corporation, Texas USA and LabVIEW, National Instruments Corp., Austin, USA). All resistance measurements were corrected for the resistance of flow through the working channel of the bronchoscope.
(§1) In this study, a total of 10 sheep were used. Fibrosis in two lung segments of each sheep in a similar manner as performed in Example 1 herein. Using this procedure (as detailed further below) the fibrosis was confined to small, isolated regions in the lungs leaving the remaining 90-95% of the healthy unaffected lungs to undertake normal respiratory function.
(§2) All sheep (n=10) in the study were challenged with 2 single doses of bleomycin (3 units) per lung segment, a fortnight apart and the animals were kept for a little over 5 weeks after the final bleomycin dose. Bleomycin is a well-known agent for inducing fibrosis in the lungs. The administration procedure involves inserting a bronchoscope into lung segments in the right and left lung, and then slowly infusing the bleomycin into two segments as shown in FIG. 2 via the bronchoscope biopsy port. […]
Lung function was assessed in all test lung-segments (left and right caudal lobes, and medial lobe in each sheep). The functional capacity of the lung segments was measured through the endoscope using the procedure outlined in Example 1 herein. The lung function parameter assessed in this study is referred to as compliance in the lung segment (abbreviated to Cseg). […]

[3] = system: sheep model for pulmonary fibrosis, bleomycin-injured lung segments; experiment: Example 2: hydroxyproline assay for collagen content; conditions: increase induced by bleomycin
Description: as §1, §2
The hydroxyproline assay was used to extrapolate the collagen content and concentration of each segment. Briefly, frozen lung tissues from each segment were lyophilized to dry weight, hydrolyzed in 6M HCl, and assessed for hydroxyproline content by measuring the absorbance of reconstituted samples (in 0.1M HCl) at 558 nm using a Beckman DU-64 spectrophotometer (Beckman Coulter Inc, Brea, Calif.). Hydroxyproline content was determined from a standard curve of trans-L-hydroxy-L-proline (Sigma-Aldrich).). […]

[4] = 7 mg pinocembrin in 10% DMSO, 4 weekly doses, left vs right caudal segment

O=C1CC(c2ccccc2)Oc2cc(O)cc(O)c21 (stereo not shown) [pinocembrin, 5,7-Dihydroxy-2-Phenyl-2,3-Dihydro-4H-Chromen-4-One]
beneficial effect of pinocembrin (significance, number of sheep) [1]: statistically significant and noted in all three sheep | lung function ([1]; 7 mg pinocembrin in 10% DMSO, 4 weekly doses, bleomycin-injured left caudal segment vs right caudal segment (bleomycin + DMSO)): improvement | fibrosis [1, 4]: decrease | inflammation [1, 4]: decrease | lung function in lung segments injured by bleomycin (summary) ([2]; 4 weekly doses of 7 mg, n=10 sheep): significantly improved | sheep with improved function (Cseg) in bleomycin-damaged, pinocembrin-treated lung segments ([2]; individual sheep data, 4 weekly infusions of 7 mg, 10 sheep): eight out of ten | percentage change in compliance from baseline ([2]; week 0 to week 11, after four weekly administrations, n=10 sheep): significantly improved | mean segmental compliance (Cseg) compared with untreated healthy control lung segments ([2]; week 11, 7 mg in 10% DMSO infused into bleomycin-injured caudal segment, 4 weekly doses, n=10 sheep): not significantly different from the untreated healthy control lung segments | collagen content (hydroxyproline assay) ([3]; 4 weekly treatments of 7 mg, 10 sheep (FIG. 16A)): did not reduce; also recorded: not associated with a significant decrease; also recorded: did not address the increase | collagen content (hydroxyproline assay) ([3]; all 13 sheep of Examples 1 and 2 (FIG. 16B)): does not reduce
